Measured values reported in article PMC6199309, “A therapeutic approach to pantothenate kinase associated neurodegeneration” (Nature Communications, 2018).

What was measured:
HCK = biological target: T1, HCK (Homo sapiens, UniProt P08631); assay: KINOMEscan; format: binding; conditions: read-out: %Ctrl @ 10000nM
T1 construct: purchased DiscoverX KINOMEscan

[1] = biological target: T2, RPS6KA4(Kin.Dom.1-N-terminal) (Homo sapiens, UniProt O75676); assay: KINOMEscan; format: binding; conditions: read-out: %Ctrl @ 10000nM
T2 construct: RPS6KA4(Kin.Dom.1-N-terminal); purchased DiscoverX KINOMEscan

EGFR(G719C) = biological target: T3, EGFR(G719C) (Homo sapiens, UniProt P00533, G719C); assay: KINOMEscan; format: binding; conditions: read-out: %Ctrl @ 10000nM
T3 construct: purchased DiscoverX KINOMEscan

RET(M918T) = biological target: T4, RET(M918T) (Homo sapiens, UniProt P07949, M918T); assay: KINOMEscan; format: binding; conditions: read-out: %Ctrl @ 10000nM
T4 construct: purchased DiscoverX KINOMEscan

KIT(D816H) = biological target: T5, KIT(D816H) (Homo sapiens, UniProt P10721, D816H); assay: KINOMEscan; format: binding; conditions: read-out: %Ctrl @ 10000nM
T5 construct: purchased DiscoverX KINOMEscan

BTK = biological target: T6, BTK (Homo sapiens, UniProt Q06187); assay: KINOMEscan; format: binding; conditions: read-out: %Ctrl @ 10000nM
T6 construct: purchased DiscoverX KINOMEscan

WEE2 = biological target: T7, WEE2 (Homo sapiens, UniProt P0C1S8); assay: KINOMEscan; format: binding; conditions: read-out: %Ctrl @ 10000nM
T7 construct: DNA label for qPCR (T7 phage fusion or DNA tag); purchased DiscoverX scanMAX; host or cells: E. coli BL21-derived (T7 phage) or HEK-293

AMPK-alpha2 = biological target: T8, AMPK-alpha2 (Homo sapiens, UniProt P54646); assay: KINOMEscan; format: binding; conditions: read-out: %Ctrl @ 10000nM
T8 construct: purchased DiscoverX KINOMEscan

BRSK1 = biological target: T9, BRSK1 (Homo sapiens, UniProt Q8TDC3); assay: KINOMEscan; format: binding; conditions: read-out: %Ctrl @ 10000nM
T9 construct: purchased DiscoverX KINOMEscan

CLK2 = biological target: T10, CLK2 (Homo sapiens, UniProt P49760); assay: KINOMEscan; format: binding; conditions: read-out: %Ctrl @ 10000nM
T10 construct: purchased DiscoverX KINOMEscan

RIPK4 = biological target: T11, RIPK4 (Homo sapiens, UniProt P57078); assay: KINOMEscan; format: binding; conditions: read-out: %Ctrl @ 10000nM
T11 construct: purchased DiscoverX KINOMEscan

Protein binding = conditions: mouse
CSNK1G2 = biological target: T12, CSNK1G2 (Homo sapiens, UniProt P78368); assay: KINOMEscan; format: binding; conditions: read-out: %Ctrl @ 10000nM
T12 construct: purchased DiscoverX KINOMEscan

[2] = biological target: T13, ABL1(H396P)-phosphorylated (Homo sapiens, UniProt P00519, H396P); assay: KINOMEscan; format: binding; conditions: read-out: %Ctrl @ 10000nM
T13 construct: purchased DiscoverX KINOMEscan

MKK7 = biological target: T14, MKK7 (Homo sapiens, UniProt O14733); assay: KINOMEscan; format: binding; conditions: read-out: %Ctrl @ 10000nM
T14 construct: purchased DiscoverX KINOMEscan

SIK2 [3] = biological target: T15, SIK2 (Homo sapiens, UniProt Q9H0K1); assay: KINOMEscan; format: binding; conditions: read-out: %Ctrl @ 10000nM
T15 construct: DNA tag for qPCR (T7 phage fusion or DNA label); purchased DiscoverX KdELECT; host or cells: E. coli BL21-derived (T7 phage) or HEK-293

BLK = biological target: T16, BLK (Homo sapiens, UniProt P51451); assay: KINOMEscan; format: binding; conditions: read-out: %Ctrl @ 10000nM
T16 construct: purchased DiscoverX KINOMEscan

RET = biological target: T17, RET (Homo sapiens, UniProt P07949); assay: KINOMEscan; format: binding; conditions: read-out: %Ctrl @ 10000nM
T17 construct: purchased DiscoverX KINOMEscan

AKT1 = biological target: T18, AKT1 (Homo sapiens, UniProt P31749); assay: KINOMEscan; format: binding; conditions: read-out: %Ctrl @ 10000nM
T18 construct: purchased DiscoverX KINOMEscan

LATS1 = biological target: T19, LATS1 (Homo sapiens, UniProt O95835); assay: KINOMEscan; format: binding; conditions: read-out: %Ctrl @ 10000nM
T19 construct: purchased DiscoverX KINOMEscan

IKK-beta = biological target: T20, IKK-beta (Homo sapiens, UniProt O14920); assay: KINOMEscan; format: binding; conditions: read-out: %Ctrl @ 10000nM
T20 construct: purchased DiscoverX KINOMEscan

SIK2 [4] = biological target: T15, SIK2; assay: KINOMEscan KdELECT; format: binding
SGK2 = biological target: T21, SGK2 (Homo sapiens, UniProt Q9HBY8); assay: KINOMEscan; format: binding; conditions: read-out: %Ctrl @ 10000nM
T21 construct: purchased DiscoverX KINOMEscan

TTK = biological target: T22, TTK (Homo sapiens, UniProt P33981); assay: KINOMEscan; format: binding; conditions: read-out: %Ctrl @ 10000nM
T22 construct: DNA label for qPCR (T7 phage fusion or DNA tag); purchased DiscoverX scanMAX; host or cells: E. coli BL21-derived (T7 phage) or HEK-293

ASK2 = biological target: T23, ASK2 (Homo sapiens, UniProt O95382); assay: KINOMEscan; format: binding; conditions: read-out: %Ctrl @ 10000nM
T23 construct: purchased DiscoverX KINOMEscan

PIK3C2G = biological target: T24, PIK3C2G (Homo sapiens, UniProt O75747); assay: KINOMEscan; format: binding; conditions: read-out: %Ctrl @ 10000nM
T24 construct: purchased DiscoverX KINOMEscan

ADCK3 = biological target: T25, ADCK3 (Homo sapiens, UniProt Q8NI60); assay: KINOMEscan; format: binding; conditions: read-out: %Ctrl @ 10000nM
T25 construct: purchased DiscoverX KINOMEscan

FLT3 = biological target: T26, FLT3 (Homo sapiens, UniProt P36888); assay: KINOMEscan; format: binding; conditions: read-out: %Ctrl @ 10000nM
T26 construct: purchased DiscoverX KINOMEscan

JNK1 = biological target: T27, JNK1 (Homo sapiens, UniProt P45983); assay: KINOMEscan; format: binding; conditions: read-out: %Ctrl @ 10000nM
T27 construct: purchased DiscoverX KINOMEscan

DCAMKL1 = biological target: T28, DCAMKL1 (Homo sapiens, UniProt O15075); assay: KINOMEscan; format: binding; conditions: read-out: %Ctrl @ 10000nM
T28 construct: purchased DiscoverX KINOMEscan

BRAF(V600E) = biological target: T29, BRAF(V600E) (Homo sapiens, UniProt P15056, V600E); assay: KINOMEscan; format: binding; conditions: read-out: %Ctrl @ 10000nM
T29 construct: purchased DiscoverX KINOMEscan

FLT4 = biological target: T30, FLT4 (Homo sapiens, UniProt P35916); assay: KINOMEscan; format: binding; conditions: read-out: %Ctrl @ 10000nM
T30 construct: purchased DiscoverX KINOMEscan

PAK2 = biological target: T31, PAK2 (Homo sapiens, UniProt Q13177); assay: KINOMEscan; format: binding; conditions: read-out: %Ctrl @ 10000nM
T31 construct: purchased DiscoverX KINOMEscan

TESK1 = biological target: T32, TESK1 (Homo sapiens, UniProt Q15569); assay: KINOMEscan; format: binding; conditions: read-out: %Ctrl @ 10000nM
T32 construct: purchased DiscoverX KINOMEscan

AMPK-alpha1 = biological target: T33, AMPK-alpha1 (Homo sapiens, UniProt Q13131); assay: KINOMEscan; format: binding; conditions: read-out: %Ctrl @ 10000nM
T33 construct: purchased DiscoverX KINOMEscan

[5] = biological target: T34, TYK2(JH2domain-pseudokinase) (Homo sapiens, UniProt P29597); assay: KINOMEscan; format: binding; conditions: read-out: %Ctrl @ 10000nM
T34 construct: TYK2(JH2domain-pseudokinase); DNA label for qPCR (T7 phage fusion or DNA tag); purchased DiscoverX scanMAX; host or cells: E. coli BL21-derived (T7 phage) or HEK-293

TAOK3 = biological target: T35, TAOK3 (Homo sapiens, UniProt Q9H2K8); assay: KINOMEscan; format: binding; conditions: read-out: %Ctrl @ 10000nM
T35 construct: purchased DiscoverX KINOMEscan

EPHB3 = biological target: T36, EPHB3 (Homo sapiens, UniProt P54753); assay: KINOMEscan; format: binding; conditions: read-out: %Ctrl @ 10000nM
T36 construct: purchased DiscoverX KINOMEscan

CSNK2A1 = biological target: T37, CSNK2A1 (Homo sapiens, UniProt P68400); assay: KINOMEscan; format: binding; conditions: read-out: %Ctrl @ 10000nM
T37 construct: purchased DiscoverX KINOMEscan

PRKR = biological target: T38, PRKR (Homo sapiens, UniProt P19525); assay: KINOMEscan; format: binding; conditions: read-out: %Ctrl @ 10000nM
T38 construct: purchased DiscoverX KINOMEscan

T15 sequence (Q9H0K1 whole entry, the tested form may be a part): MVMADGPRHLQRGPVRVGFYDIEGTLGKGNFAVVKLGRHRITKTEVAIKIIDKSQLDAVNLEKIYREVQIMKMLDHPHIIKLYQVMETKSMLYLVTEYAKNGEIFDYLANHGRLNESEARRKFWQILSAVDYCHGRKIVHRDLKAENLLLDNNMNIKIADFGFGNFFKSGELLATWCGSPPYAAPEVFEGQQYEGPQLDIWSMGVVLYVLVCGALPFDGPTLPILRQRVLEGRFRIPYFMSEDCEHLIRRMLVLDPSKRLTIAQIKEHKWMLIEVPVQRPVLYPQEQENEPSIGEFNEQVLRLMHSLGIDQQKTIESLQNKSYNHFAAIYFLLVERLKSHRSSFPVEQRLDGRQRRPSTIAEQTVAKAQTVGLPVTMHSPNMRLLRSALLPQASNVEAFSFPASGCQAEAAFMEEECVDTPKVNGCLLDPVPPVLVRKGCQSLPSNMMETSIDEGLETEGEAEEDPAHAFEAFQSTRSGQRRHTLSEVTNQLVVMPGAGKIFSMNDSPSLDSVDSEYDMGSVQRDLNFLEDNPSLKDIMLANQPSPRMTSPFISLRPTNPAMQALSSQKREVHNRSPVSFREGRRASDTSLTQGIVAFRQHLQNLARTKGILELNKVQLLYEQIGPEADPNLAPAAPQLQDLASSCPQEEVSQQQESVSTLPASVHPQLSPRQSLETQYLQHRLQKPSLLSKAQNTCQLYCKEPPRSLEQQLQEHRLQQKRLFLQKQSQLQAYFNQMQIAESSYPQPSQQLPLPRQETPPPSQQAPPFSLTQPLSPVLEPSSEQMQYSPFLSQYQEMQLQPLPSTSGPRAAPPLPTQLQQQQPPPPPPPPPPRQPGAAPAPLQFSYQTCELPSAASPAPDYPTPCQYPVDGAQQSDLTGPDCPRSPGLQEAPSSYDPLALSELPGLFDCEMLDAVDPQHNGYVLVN
T10 sequence (P49760 whole entry): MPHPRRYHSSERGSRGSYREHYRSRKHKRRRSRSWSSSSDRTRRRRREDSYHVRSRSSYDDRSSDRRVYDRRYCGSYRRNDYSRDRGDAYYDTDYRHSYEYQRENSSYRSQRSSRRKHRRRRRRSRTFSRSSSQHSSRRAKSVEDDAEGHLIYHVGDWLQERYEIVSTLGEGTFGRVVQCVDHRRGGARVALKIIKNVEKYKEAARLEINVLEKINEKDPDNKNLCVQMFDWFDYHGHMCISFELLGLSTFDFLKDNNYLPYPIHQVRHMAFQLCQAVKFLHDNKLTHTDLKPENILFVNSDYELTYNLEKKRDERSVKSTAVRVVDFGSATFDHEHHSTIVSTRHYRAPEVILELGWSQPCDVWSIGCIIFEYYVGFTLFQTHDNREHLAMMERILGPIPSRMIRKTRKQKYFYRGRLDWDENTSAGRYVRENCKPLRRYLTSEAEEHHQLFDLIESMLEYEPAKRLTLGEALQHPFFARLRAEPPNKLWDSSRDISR
T37 sequence (P68400 whole entry): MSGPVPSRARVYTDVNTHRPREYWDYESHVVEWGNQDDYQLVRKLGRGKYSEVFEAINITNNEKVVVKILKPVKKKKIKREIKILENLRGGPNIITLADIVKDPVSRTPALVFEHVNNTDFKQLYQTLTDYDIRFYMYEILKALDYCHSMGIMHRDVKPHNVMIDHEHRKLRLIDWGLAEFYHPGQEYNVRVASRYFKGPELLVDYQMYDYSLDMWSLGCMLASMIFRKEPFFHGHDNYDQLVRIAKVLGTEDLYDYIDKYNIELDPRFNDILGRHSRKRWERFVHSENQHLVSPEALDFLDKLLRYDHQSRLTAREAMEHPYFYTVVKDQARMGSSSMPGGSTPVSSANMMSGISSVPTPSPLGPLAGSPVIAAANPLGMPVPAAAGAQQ
T1 sequence (P08631 whole entry): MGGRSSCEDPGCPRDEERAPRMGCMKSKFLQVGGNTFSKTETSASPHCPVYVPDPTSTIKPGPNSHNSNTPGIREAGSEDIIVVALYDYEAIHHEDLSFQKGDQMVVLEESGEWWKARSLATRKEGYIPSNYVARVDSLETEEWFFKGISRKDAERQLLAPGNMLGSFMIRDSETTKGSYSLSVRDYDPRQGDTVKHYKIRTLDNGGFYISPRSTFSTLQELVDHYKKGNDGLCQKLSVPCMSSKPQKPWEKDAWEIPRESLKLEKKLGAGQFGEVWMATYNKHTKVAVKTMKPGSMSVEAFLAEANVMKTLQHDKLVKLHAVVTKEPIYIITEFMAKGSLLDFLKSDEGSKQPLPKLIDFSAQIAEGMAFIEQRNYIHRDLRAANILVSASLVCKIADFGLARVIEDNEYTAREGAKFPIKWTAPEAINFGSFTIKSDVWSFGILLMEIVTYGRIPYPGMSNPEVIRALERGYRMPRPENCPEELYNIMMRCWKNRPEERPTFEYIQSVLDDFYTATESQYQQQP
T20 sequence (O14920 whole entry): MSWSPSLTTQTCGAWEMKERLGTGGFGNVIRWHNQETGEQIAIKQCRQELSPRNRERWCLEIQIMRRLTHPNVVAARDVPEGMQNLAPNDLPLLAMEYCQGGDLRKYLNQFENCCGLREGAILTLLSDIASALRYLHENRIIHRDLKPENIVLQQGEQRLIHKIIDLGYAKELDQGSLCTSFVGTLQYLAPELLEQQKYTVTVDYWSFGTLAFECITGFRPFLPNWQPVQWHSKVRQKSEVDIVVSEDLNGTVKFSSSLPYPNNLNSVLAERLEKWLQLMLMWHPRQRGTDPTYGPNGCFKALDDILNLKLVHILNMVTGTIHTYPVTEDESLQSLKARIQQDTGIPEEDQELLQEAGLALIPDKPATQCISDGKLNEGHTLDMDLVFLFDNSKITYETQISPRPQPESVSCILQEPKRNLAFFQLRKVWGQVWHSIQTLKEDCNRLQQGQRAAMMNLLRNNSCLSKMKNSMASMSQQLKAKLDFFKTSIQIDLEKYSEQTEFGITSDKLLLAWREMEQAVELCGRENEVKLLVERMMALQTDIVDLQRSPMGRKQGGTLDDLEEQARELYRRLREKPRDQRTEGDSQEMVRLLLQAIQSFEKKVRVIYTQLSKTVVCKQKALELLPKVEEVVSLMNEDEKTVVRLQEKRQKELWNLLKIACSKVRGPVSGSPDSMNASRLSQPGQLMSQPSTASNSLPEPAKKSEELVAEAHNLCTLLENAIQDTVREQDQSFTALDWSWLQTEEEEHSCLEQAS
T8 sequence (P54646 whole entry): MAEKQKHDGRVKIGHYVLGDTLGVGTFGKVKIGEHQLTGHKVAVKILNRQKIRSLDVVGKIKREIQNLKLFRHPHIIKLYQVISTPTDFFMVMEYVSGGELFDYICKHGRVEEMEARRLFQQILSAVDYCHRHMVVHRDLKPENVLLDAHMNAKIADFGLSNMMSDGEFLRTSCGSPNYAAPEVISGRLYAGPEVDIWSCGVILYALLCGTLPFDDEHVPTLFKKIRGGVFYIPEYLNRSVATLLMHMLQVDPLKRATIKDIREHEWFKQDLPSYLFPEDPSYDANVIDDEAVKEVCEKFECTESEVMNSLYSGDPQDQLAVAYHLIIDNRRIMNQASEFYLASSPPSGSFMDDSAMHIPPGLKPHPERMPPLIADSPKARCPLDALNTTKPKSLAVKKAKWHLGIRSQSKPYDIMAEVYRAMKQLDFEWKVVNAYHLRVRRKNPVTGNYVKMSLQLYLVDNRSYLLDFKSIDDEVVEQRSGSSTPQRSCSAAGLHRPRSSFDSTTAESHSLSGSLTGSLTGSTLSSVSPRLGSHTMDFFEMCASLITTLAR
T31 sequence (Q13177 whole entry): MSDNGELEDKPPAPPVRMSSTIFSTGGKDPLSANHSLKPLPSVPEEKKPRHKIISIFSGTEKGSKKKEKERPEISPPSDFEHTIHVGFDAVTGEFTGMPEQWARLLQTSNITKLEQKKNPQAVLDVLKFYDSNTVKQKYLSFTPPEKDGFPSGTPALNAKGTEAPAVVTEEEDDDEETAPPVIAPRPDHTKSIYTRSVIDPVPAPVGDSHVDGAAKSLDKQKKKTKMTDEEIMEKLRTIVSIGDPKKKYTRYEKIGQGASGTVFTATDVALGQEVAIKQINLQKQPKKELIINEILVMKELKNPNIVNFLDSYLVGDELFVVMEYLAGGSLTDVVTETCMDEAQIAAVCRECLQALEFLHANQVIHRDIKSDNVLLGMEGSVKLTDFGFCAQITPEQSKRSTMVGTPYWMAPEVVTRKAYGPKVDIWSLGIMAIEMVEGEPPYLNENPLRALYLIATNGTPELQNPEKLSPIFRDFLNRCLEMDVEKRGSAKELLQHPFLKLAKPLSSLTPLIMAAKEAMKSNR
T6 sequence (Q06187 whole entry): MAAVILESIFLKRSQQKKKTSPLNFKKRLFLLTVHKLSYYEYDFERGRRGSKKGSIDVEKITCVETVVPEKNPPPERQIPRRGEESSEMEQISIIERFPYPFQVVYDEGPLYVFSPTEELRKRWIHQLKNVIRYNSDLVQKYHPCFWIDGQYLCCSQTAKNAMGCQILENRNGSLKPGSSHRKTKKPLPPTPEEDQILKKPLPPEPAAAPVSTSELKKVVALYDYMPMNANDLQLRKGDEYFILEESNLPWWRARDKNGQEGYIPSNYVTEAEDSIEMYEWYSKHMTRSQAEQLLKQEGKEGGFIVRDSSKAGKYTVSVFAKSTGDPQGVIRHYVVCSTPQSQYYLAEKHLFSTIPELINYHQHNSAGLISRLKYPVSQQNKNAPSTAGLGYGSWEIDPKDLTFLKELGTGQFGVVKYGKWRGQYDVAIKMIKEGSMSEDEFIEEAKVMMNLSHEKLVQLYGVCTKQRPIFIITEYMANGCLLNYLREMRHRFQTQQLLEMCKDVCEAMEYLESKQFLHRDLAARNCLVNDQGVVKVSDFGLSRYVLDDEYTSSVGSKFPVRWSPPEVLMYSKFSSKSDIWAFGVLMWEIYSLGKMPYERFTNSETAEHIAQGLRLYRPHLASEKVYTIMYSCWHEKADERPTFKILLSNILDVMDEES

`CC(C)c1ccc(CC(=O)N2CCN(c3ccc(C#N)nn3)CC2)cc1` [PZ-2891, 6-(4-(2-(4-isopropylphenyl)acetyl)piperazin-1-yl)pyridazine-3-carbonitrile] gave a remaining binding at 10 µM (HCK) of 79%, a remaining binding at 10 µM [1] of 96% and a remaining binding at 10 µM (EGFR(G719C)) of 100%. It also gave a remaining binding at 10 µM (RET(M918T)) of 95%, a remaining binding at 10 µM (KIT(D816H)) of 66% and a remaining binding at 10 µM (BTK) of 94%. It also gave a remaining binding at 10 µM (WEE2) of 99%, a remaining binding at 10 µM (AMPK-alpha2) of 100% and a remaining binding at 10 µM (BRSK1) of 75%. It also gave a remaining binding at 10 µM (CLK2) of 94%, a remaining binding at 10 µM (RIPK4) of 81% and a fraction unbound (Protein binding) of 0.08. It also gave a remaining binding at 10 µM (CSNK1G2) of 62%, a remaining binding at 10 µM [2] of 76% and a remaining binding at 10 µM (MKK7) of 84%. It also gave a remaining binding at 10 µM (SIK2 [3]) of 9.5%, a remaining binding at 10 µM (BLK) of 87% and a remaining binding at 10 µM (RET) of 74%. It also gave a remaining binding at 10 µM (AKT1) of 98%, a remaining binding at 10 µM (LATS1) of 86% and a remaining binding at 10 µM (IKK-beta) of 100%. The Kd (SIK2 [4]; SIK2) was over 30 µM, the Kd (SIK2 [4]; SIK2 Replicate ID = 1) was over 30 µM and the Kd (SIK2 [4]; SIK2 Replicate ID = 2) was over 30 µM. It also gave a remaining binding at 10 µM (SGK2) of 64%, a remaining binding at 10 µM (TTK) of 96% and a remaining binding at 10 µM (ASK2) of 83%. The remaining binding at 10 µM (PIK3C2G) was 61%, the remaining binding at 10 µM (ADCK3) was 100% and the remaining binding at 10 µM (FLT3) was 57%. It also gave a remaining binding at 10 µM (JNK1) of 62%, a remaining binding at 10 µM (DCAMKL1) of 80% and a remaining binding at 10 µM (BRAF(V600E)) of 100%. The remaining binding at 10 µM (FLT4) was 91%, the remaining binding at 10 µM (PAK2) was 44% and the remaining binding at 10 µM (TESK1) was 86%. For the same compound, the remaining binding at 10 µM (AMPK-alpha1) was 92%, the remaining binding at 10 µM [5] was 100% and the remaining binding at 10 µM (TAOK3) was 95%. It also gave a remaining binding at 10 µM (EPHB3) of 92%, a remaining binding at 10 µM (CSNK2A1) of 82% and a remaining binding at 10 µM (PRKR) of 100%.
